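Cultured in 96-well plates, cells were exposed to test compound for 48 hours across five concentrations. The concentration for 50% growth inhibition is given as GI50. TGI is the concentration that stops growth completely.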
How the values were obtained:
Test in all cases: NCI tumour cell line growth inhibition, 48 h
[1] = tested on: EKVX NSCLC
[2] = tested on: A549 NSCLC
[3] = tested on: 786-0 renal
[4] = tested on: SF-295 CNS
[5] = tested on: UACC-62 melanoma
[6] = tested on: SN12C renal
[7] = tested on: MOLT-4 leukemia
[8] = tested on: ACHN renal
[9] = tested on: SK-MEL-2 melanoma
[10] = tested on: MDA-MB-435
[11] = tested on: NCI-H226 lung
[12] = tested on: MDA-MB-231 breast
[13] = tested on: RPMI-8226 leukemia
[14] = tested on: CAKI-1 renal
[15] = tested on: U251 CNS
[16] = tested on: SK-MEL-5 melanoma
[17] = tested on: IGROV1 ovarian
[18] = tested on: RXF 393 renal
[19] = tested on: SNB-75 CNS
[20] = tested on: M14 melanoma
[21] = tested on: HCT-15 colon
[22] = tested on: OVCAR-8 ovarian
[23] = tested on: MALME-3M melanoma
[24] = tested on: UACC-257 melanoma
[25] = tested on: TK-10 renal
[26] = tested on: HT29 colon
[27] = tested on: HCC-2998 colon
[28] = tested on: DU-145 prostate
[29] = tested on: SR leukemia
[30] = tested on: NCI/ADR-RES ovarian
[31] = tested on: SK-MEL-28 melanoma
[32] = tested on: HOP-62 NSCLC
[33] = tested on: KM12 colon
[34] = tested on: COLO 205 colon
[35] = tested on: NCI-H460 lung
[36] = tested on: SW-620 colon
[37] = tested on: PC-3 prostate
[38] = tested on: OVCAR-5 ovarian
[39] = tested on: OVCAR-3 ovarian
[40] = tested on: SNB-19 CNS
[41] = tested on: OVCAR-4 ovarian
[42] = tested on: NCI-H23 lung
[43] = tested on: T-47D breast
[44] = tested on: SF-539 CNS
[45] = tested on: HS 578T breast
[46] = tested on: HCT-116 colon
[47] = tested on: SK-OV-3 ovarian
[48] = tested on: BT-549 breast
[49] = tested on: UO-31 renal
[50] = tested on: A498 renal
[51] = tested on: CCRF-CEM leukemia
[52] = tested on: MCF7 breast
[53] = tested on: SF-268 CNS
[54] = tested on: NCI-H522 lung
[55] = tested on: LOX IMVI melanoma

COc1cc(C(=O)Nc2cc(O)c(CC=C(C)C)c(O)c2)cc2c1O[C@]1(C)CC[C@@H](O)C(C)(C)[C@H]1C2 showed a GI50 [1] of 2.71 µM, a TGI [1] of 32 µM and a GI50 [2] of 1.05 µM. The TGI [2] was 24.6 µM, the GI50 [3] was 0.0342 µM and the TGI [3] was 6.85 µM. The GI50 [4] was 0.0397 µM, the TGI [4] was 0.325 µM and the GI50 [5] was 0.187 µM. For the same molecule, the TGI [5] was 1.57 µM, the GI50 [6] was 8.12 µM and the TGI [6] was 60.2 µM. It also gave a GI50 [7] of 0.0641 µM, a TGI [7] of 1.38 µM and a GI50 [8] of 1.78 µM. It also gave a TGI [8] of 24.3 µM, a GI50 [9] of 0.143 µM and a TGI [9] of 8.21 µM. The GI50 [10] was 0.703 µM, the TGI [10] was 41.4 µM and the GI50 [11] was 3.04 µM. For the same molecule, the TGI [11] was 61.3 µM, the GI50 [12] was 1.16 µM and the TGI [12] was 4.53 µM. For the same molecule, the GI50 [13] was 0.0959 µM, the TGI [13] was 0.816 µM and the GI50 [14] was 0.491 µM. It also gave a TGI [14] of 63.1 µM, a GI50 [15] of 0.0399 µM and a TGI [15] of 17.4 µM. For the same molecule, the GI50 [16] was 1.13 µM, the TGI [16] was 3.51 µM and the GI50 [17] was 7.06 µM. The TGI [17] was 46.3 µM, the GI50 [18] was 0.0345 µM and the TGI [18] was 2.89 µM. For the same molecule, the GI50 [19] was 0.33 µM, the TGI [19] was 17 µM and the GI50 [20] was 0.333 µM. For the same molecule, the TGI [20] was 2.35 µM, the GI50 [21] was 1.32 µM and the TGI [21] was 14.4 µM. It also gave a GI50 [22] of 0.623 µM, a TGI [22] of 44.2 µM and a GI50 [23] of 2.85 µM. For the same molecule, the TGI [23] was 20 µM, the GI50 [24] was 0.0989 µM and the TGI [24] was 13.1 µM. For the same molecule, the GI50 [25] was 2.91 µM, the TGI [25] was 42.4 µM and the GI50 [26] was 1.9 µM. The TGI [26] was 12.3 µM, the GI50 [27] was 3.13 µM and the TGI [27] was 13.8 µM. For the same molecule, the GI50 [28] was 1.87 µM, the TGI [28] was 21.7 µM and the GI50 [29] was 0.0624 µM. The TGI [29] was > 100 µM, the GI50 [30] was 29.8 µM and the TGI [30] was > 100 µM. It also gave a GI50 [31] of 2.03 µM, a TGI [31] of 22.8 µM and a GI50 [32] of 0.46 µM. For the same molecule, the TGI [32] was 8.81 µM, the GI50 [33] was 1.76 µM and the TGI [33] was 12.9 µM. For the same molecule, the GI50 [34] was 1.37 µM, the TGI [34] was 7.98 µM and the GI50 [35] was 0.547 µM. It also gave a TGI [35] of 19.1 µM, a GI50 [36] of 1.15 µM and a TGI [36] of 11.9 µM. The GI50 [37] was 0.142 µM, the TGI [37] was 37.5 µM and the GI50 [38] was 3.44 µM. For the same molecule, the TGI [38] was 37 µM, the GI50 [39] was 3.83 µM and the TGI [39] was 62 µM. For the same molecule, the GI50 [40] was 4.64 µM, the TGI [40] was 61.6 µM and the GI50 [41] was 10.1 µM. The TGI [41] was > 100 µM, the GI50 [42] was 5.42 µM and the TGI [42] was 35.9 µM. For the same molecule, the GI50 [43] was 1.12 µM, the TGI [43] was 14.3 µM and the GI50 [44] was 0.0391 µM. It also gave a TGI [44] of 1.51 µM, a GI50 [45] of 0.0471 µM and a TGI [45] of 14 µM. It also gave a GI50 [46] of 0.219 µM, a TGI [46] of 10.8 µM and a GI50 [47] of 0.729 µM. For the same molecule, the TGI [47] was 17.3 µM, the GI50 [48] was 0.153 µM and the TGI [48] was 12.8 µM. It also gave a GI50 [49] of 0.506 µM, a TGI [49] of 4.13 µM and a GI50 [50] of 0.147 µM. The TGI [50] was 15.7 µM, the GI50 [51] was 0.0962 µM and the TGI [51] was > 100 µM. For the same molecule, the GI50 [52] was 0.256 µM, the TGI [52] was 15.4 µM and the GI50 [53] was 1.79 µM. It also gave a TGI [53] of 39.3 µM, a GI50 [54] of 1.92 µM and a TGI [54] of 14.6 µM. For the same molecule, the GI50 [55] was 0.281 µM and the TGI [55] was 10.3 µM.

From PubChem BioAssay (NCI)
